Data taken from patent US9125388B2, “Biological control” (Isis Innovation Limited, priority 1999, dated 2015).

What was measured:
[1] = test system: Hsp26 tTa^(A) × tRe Msl-2^Nopu(A, B,); experiment: Single chromosome crosses at 25° C., adult progeny by sex
[2] = test system: (Female) Sxlp^e tTa^(A) × tRe lacZ^(III) (Male); experiment: Reporter crosses at 25° C., embryos stained for lacZ; format: in vivo, Drosophila melanogaster
Source text: As with “single chromosome crosses”, ten to fifteen virgin females homozygous for the tTA construct and five to ten young males homozygous for the tRe construct were placed on food containing or lacking a tetracycline supplement.

[3] = test system: Actin5C tTa^(B, C, E) × tRe Ras64B^V12(B, C); experiment: Single chromosome crosses at 25° C., adult progeny by sex; format: in vivo, Drosophila melanogaster
Protocol: (§1) In “single chromosome crosses” at 25° C., ten to fifteen virgin females homozygous for the tTA construct and five to ten young males homozygous for the tRe construct were placed on food containing or lacking a tetracycline supplement.

[4] = test system: Sxlpe tTa^(A, B, C, F) × tRe Msl-2^Nopu(B, C, D); experiment: as above; format: in vivo, Drosophila melanogaster
Protocol: as §1

[5] = test system: Sxlpe tTa^(A, B, C, F) × tRe Msl-1^Mpu(A, B); experiment: as above; format: in vivo, Drosophila melanogaster
Protocol: as §1

[6] = test system: Yp3 tTa^(A) × tRe Ras64B^V12(B, C,); experiment: as above; format: in vivo, Drosophila melanogaster
Protocol: as §1

[7] = test system: Stwl tTa^(A, B, C) × tRe Ras64B^V12(B, C); experiment: as above; format: in vivo, Drosophila melanogaster
Protocol: as §1

[8] = test system: Stwl tTa^(A, B, C) × tRe Msl-1^Mpu(A, B); experiment: as above; format: in vivo, Drosophila melanogaster
Protocol: as §1

[9] = test system: Sxlpe tTa^(A, B, C, F) × tRe Ras64B^V12(B, C); experiment: as above; format: in vivo, Drosophila melanogaster
Protocol: as §1

[10] = test system: Stwl tTa^(A, B, C) × tRe Msl-2^Nopu(B, C, D); experiment: as above; format: in vivo, Drosophila melanogaster
Protocol: as §1

[11] = test system: Yp3 tTa^(A) × tRe Msl-2^Nopu(A, B,); experiment: as above; format: in vivo, Drosophila melanogaster
Protocol: as §1

[12] = test system: Hsp26 tTa^(A) × tRe Ras64B^V12(B, C,); experiment: as above; format: in vivo, Drosophila melanogaster
Protocol: as §1

[13] = test system: Actin5C tTa^(B, C, E) × tRe Msl-2^Nopu (B, C, D); experiment: as above; format: in vivo, Drosophila melanogaster
Protocol: as §1

[14] = test system: Actin5C tTa^(B, C, E) × tRe Msl-1^MPu(A, B); experiment: as above; format: in vivo, Drosophila melanogaster
Protocol: as §1

[15] = test system: Hsp26 tTa^(A) × tRe MSl-1^Mpu(A, B,); experiment: as above; format: in vivo, Drosophila melanogaster
Protocol: as §1

[16] = test system: Yp3 tTa^(A) × tRe Msl-1^Mpu(A, B,); experiment: as above; format: in vivo, Drosophila melanogaster
Protocol: as §1

## CN(C)[C@@H]1C(O)=C(C(N)=O)C(=O)[C@@]2(O)C(O)=C3C(=O)c4c(O)cccc4[C@@](C)(O)[C@H]3C[C@@H]12 [Tetracycline, tetracycline]
[1]; Tetracycline 0.1 μg/ml in food
  Female progeny Total: 159
  Male progeny Total: 159
[1]; Tetracycline 1 μg/ml in food
  Female progeny Total: 135
  Male progeny Total: 122
[1]; Tetracycline 5 μg/ml in food
  Female progeny Total: 124
  Male progeny Total: 120
[2]; Tetracycline 0.1 μg/ml in food
  LacZ negative Total: 709
  LacZ positive Total: 0
[2]; Tetracycline 1 μg/ml in food
  LacZ negative Total: 739
  LacZ positive Total: 0
[2]; Tetracycline 5 μg/ml in food
  LacZ negative Total: 651
  LacZ positive Total: 0
[3]; Tetracycline 0.1 μg/ml in food
  Female progeny Total: 361
  Male progeny Total: 372
[3]; Tetracycline 1 μg/ml in food
  Female progeny Total: 427
  Male progeny Total: 383
[3]; Tetracycline 5 μg/ml in food
  Female progeny Total: 375
  Male progeny Total: 400
[4]; Tetracycline 0.1 μg/ml in food
  Female progeny Total: 647
  Male progeny Total: 562
[4]; Tetracycline 1 μg/ml in food
  Female progeny Total: 644
  Male progeny Total: 674
[4]; Tetracycline 5 μg/ml in food
  Female progeny Total: 615
  Male progeny Total: 742
[5]; Tetracycline 0.1 μg/ml in food
  Female progeny Total: 296
  Male progeny Total: 520
[5]; Tetracycline 1 μg/ml in food
  Female progeny Total: 326
  Male progeny Total: 473
[5]; Tetracycline 5 μg/ml in food
  Female progeny Total: 304
  Male progeny Total: 535
[6]; Tetracycline 0.1 μg/ml in food
  Female progeny Total: 322
  Male progeny Total: 352
[6]; Tetracycline 1 μg/ml in food
  Female progeny Total: 342
  Male progeny Total: 376
[6]; Tetracycline 5 μg/ml in food
  Female progeny Total: 316
  Male progeny Total: 354
[7]; Tetracycline 0.1 μg/ml in food
  Female progeny Total: 317
  Male progeny Total: 315
[7]; Tetracycline 1 μg/ml in food
  Female progeny Total: 307
  Male progeny Total: 328
[7]; Tetracycline 5 μg/ml in food
  Female progeny Total: 271
  Male progeny Total: 335
[8]; Tetracycline 0.1 μg/ml in food
  Female progeny Total: 211
  Male progeny Total: 336
[8]; Tetracycline 1 μg/ml in food
  Female progeny Total: 236
  Male progeny Total: 257
[8]; Tetracycline 5 μg/ml in food
  Female progeny Total: 223
  Male progeny Total: 291
[9]; Tetracycline 0.1 μg/ml in food
  Female progeny Total: 379
  Male progeny Total: 434
[9]; Tetracycline 1 μg/ml in food
  Female progeny Total: 386
  Male progeny Total: 389
[9]; Tetracycline 5 μg/ml in food
  Female progeny Total: 383
  Male progeny Total: 375
[10]; Tetracycline 0.1 μg/ml in food
  Female progeny Total: 436
  Male progeny Total: 491
[10]; Tetracycline 1 μg/ml in food
  Female progeny Total: 439
  Male progeny Total: 490
[10]; Tetracycline 5 μg/ml in food
  Female progeny Total: 434
  Male progeny Total: 481
[11]; Tetracycline 0.1 μg/ml in food
  Female progeny Total: 268
  Male progeny Total: 248
[11]; Tetracycline 1 μg/ml in food
  Female progeny Total: 324
  Male progeny Total: 362
[11]; Tetracycline 5 μg/ml in food
  Female progeny Total: 349
  Male progeny Total: 386
[12]; Tetracycline 0.1 μg/ml in food
  Female progeny Total: 235
  Male progeny Total: 210
[12]; Tetracycline 1 μg/ml in food
  Female progeny Total: 199
  Male progeny Total: 274
[12]; Tetracycline 5 μg/ml in food
  Female progeny Total: 156
  Male progeny Total: 154
[13]; Tetracycline 0.1 μg/ml in food
  Female progeny Total: 548
  Male progeny Total: 637
[13]; Tetracycline 1 μg/ml in food
  Female progeny Total: 590
  Male progeny Total: 549
[13]; Tetracycline 5 μg/ml in food
  Female progeny Total: 615
  Male progeny Total: 522
[14]; Tetracycline 0.1 μg/ml in food
  Female progeny Total: 412
  Male progeny Total: 402
[14]; Tetracycline 1 μg/ml in food
  Female progeny Total: 321
  Male progeny Total: 351
[14]; Tetracycline 5 μg/ml in food
  Female progeny Total: 386
  Male progeny Total: 401
[15]; Tetracycline 0.1 μg/ml in food
  Female progeny Total: 328
  Male progeny Total: 368
[15]; Tetracycline 1 μg/ml in food
  Female progeny Total: 310
  Male progeny Total: 343
[15]; Tetracycline 5 μg/ml in food
  Female progeny Total: 313
  Male progeny Total: 347
[16]; Tetracycline 0.1 μg/ml in food
  Female progeny Total: 336
  Male progeny Total: 379
[16]; Tetracycline 1 μg/ml in food
  Female progeny Total: 319
  Male progeny Total: 347
[16]; Tetracycline 5 μg/ml in food
  Female progeny Total: 307
  Male progeny Total: 348
